From US20210040428A1, “MICROFLUIDIC DEVICE AND METHOD FOR DETERMINING CELL ELECTRICAL BARRIER PROPERTIES” (University of Southampton, priority 2018, published 2021)

Test system: differentiated culture of primary bronchial human cells
Experiment: Barrier disruption at the air-liquid interface: epithelial barrier resistance Rc by impedance spectroscopy before and after EGTA stimulation
Type: cell-based
Conditions: paired t-test
Procedure: Impedance spectra were measured before and after EGTA stimulation either submerged or at the air-liquid interface. The extrapolated values of the equivalent resistance Rc were compared with TER values.
FIG. 17 is a bar chart of fitted resistance values, Rc, showing the disruption induced by the EGTA stimulation.
Electrical impedance spectroscopy (EIS) measurements were performed using the two electrodes configuration of an Alpha-A impedance analyser (Novocontrol Technologies, Germany). A frequency sweep was performed between 100 Hz and 100 kHz, with an applied voltage of 0.05 V(rms). Prior to the EIS measurement, the medium in the apical compartment was replaced with different volumes (200 μl, 50 μl, 20 μl, 10 μl) of fresh medium at room-temperature. Each Transwell® support was placed on top of the planar electrodes only for the duration of the measurement (≈30 s). Trans-epithelial electrical resistance (TER) measurements were performed using chopstick electrodes connected to an EVOM2 Epithelial Volt-ohm-meter (World Precision Instruments).
A custom script was developed in Matlab (© 2015 The MathWorks) to fit the complex electrical impedance data with the equivalent electric circuit model. The objective function to be minimized during the fitting was defined as: […]
The absolute value of the impedance was used as the normalizing factor. […]

O=C(O)CN(CCOCCOCCN(CC(=O)O)CC(=O)O)CC(=O)O [EGTA, ethylene glycol-bis(β-aminoethyl ether)-N,N,N′,N′-tetraacetic acid]
fitted resistance Rc of the epithelial barrier, change after stimulation compared to the control (air-liquid interface measurement): statistically significant (paired t-test) drop
fitted resistance Rc of the epithelial barrier, change after stimulation compared to the control (submerged measurement): statistically significant (paired t-test) drop
